Values joined by “and” are separate entries in the source; they are usually repeats but may differ in a detail not shown here. Equal entries are not always repeated. Where two headings read alike, the source gives them in different places.
Tests used:
Assay in all cases: Greenhouse test, pre-emergence treatment
ABUTH = type: in vivo, Abutilon theophrasti; conditions: Abutilon theophrasti, 480 h, 20 DAT, read-out: observed % activity
Outline: (§1)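 Seeds were sown in loamy sand with approximately 3.0% humus, then sprayed at once with actives suspended or emulsified in water. Pots were watered, hooded until rooting, held at 10-25° C. or 20-35° C. by species for 2 to 4 weeks, and scored 0 (no damage) to 100 (no emergence/complete destruction).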

ALOMY = type: in vivo, Alopecurus myosuroides; conditions: Alopecurus myosuroides, pre-emergence, read-out: observed % activity; for inhibition at 8 g/ha: 8 g ai/ha; for inhibition at 16 g/ha: 16 g ai/ha
Outline: as §1

POLCO = type: in vivo, Polygonum convolvulus
Outline: as §1

AVEFA = type: in vivo, Avena fatua; conditions: for observed % activity: 20 DAT
Source text: (§2) The culture containers used were plastic flowerpots containing loamy sand with approximately 3.0% of humus as the substrate. The seeds of the test plants were sown separately for each species.
(§3) For the pre-emergence treatment, the active ingredients, which had been suspended or emulsified in water, were applied directly after sowing by means of finely distributing nozzles. The containers were irrigated gently to promote germination and growth and subsequently covered with transparent plastic hoods until the plants had rooted. This cover caused uniform germination of the test plants, unless this had been impaired by the active ingredients.
(§4) Depending on the species, the plants were kept at 10-25° C. or 20-35° C., respectively.
(§5) The test period extended over 2 to 4 weeks. During this time, the plants were tended, and their response to the individual treatments was evaluated.
(§6) Evaluation was carried out using a scale from 0 to 100. 100 means no emergence of the plants, or complete destruction of at least the aerial moieties, and 0 means no damage, or normal course of growth. A moderate herbicidal activity is given at values of at least 60, a good herbicidal activity is given at values of at least 70, and a very good herbicidal activity is given at values of at least 85.
(§7) The respective stated components a and b, and if appropriate, c were formulated as a 10% by weight strength emulsion concentrate and, with addition of the amount of solvent system, introduced into the spray liquor used for applying the active compound.
(§8) In the examples, the solvent used was water.
(§9) In the examples below, using the method of S. R. Colby (1967) “Calculating synergistic and antagonistic responses of herbicide combinations”, Weeds 15, p. 22ff., the value E, which is expected if the activity of the individual active compounds is only additive, was calculated. E=X+Y−(X·Y/100) where • X=percent activity using active compound a at an application rate A; • Y=percent activity using active compound b at an application rate B; • E=expected activity (in %) by a+b at application rates A+B.
(§10) If the value found experimentally is higher than the value E calculated according to Colby, a synergistic effect is present.

BRADC = type: in vivo, Brachiaria decumbens; conditions: Urochloa decumbens, pre-emergence, read-out: observed % activity; for inhibition at 16 g/ha: 16 g ai/ha
Source text: as §2, §3, §4, §5, §6, §7, §8, §9, §10

COMBE = type: in vivo, Commelina benghalensis; conditions: 20 DAT
Outline: as §1

EPHHL = type: in vivo, Euphorbia heterophylla; conditions: 20 DAT
Outline: as §1

GALAP = type: in vivo, Galium aparine
Outline: as §1

GERPU = type: in vivo, Geranium pusillum; conditions: 20 DAT
Outline: as §1

KCHSC = type: in vivo, Kochia scoparia; conditions: 20 DAT
Outline: as §1

LOLMU = type: in vivo, Lolium multiflorum; conditions: Lolium multiflorum, pre-emergence, read-out: observed % activity; for inhibition at 8 g/ha: 8 g ai/ha; for inhibition at 16 g/ha: 16 g ai/ha
Outline: as §1

PHACA = type: in vivo, Phalaris canariensis; conditions: for inhibition at 8 g/ha / inhibition at 16 g/ha: Phalaris canariensis, pre-emergence, read-out: observed % activity; for inhibition at 8 g/ha: 8 g ai/ha
Source text: as §2, §3, §4, §5, §6, §7, §8, §9, §10

CC1(c2nc(N)nc(Nc3c(F)c(F)cc(F)c3F)n2)CCC1 [compound 8, 6-(1-methylcyclobutyl)-N4-(2,3,5,6-tetrafluorophenyl)-1,3,5-triazine-2,4-diamine]
inhibition at 8 g/ha (ABUTH; 8 g ai/ha): 80%
inhibition at 16 g/ha (ABUTH; 16 g ai/ha): 70%
inhibition at 8 g/ha (ALOMY; 192 h, 8 DAT): 50%
inhibition at 16 g/ha (ALOMY; 192 h, 8 DAT): 90%
inhibition at 8 g/ha (ALOMY; 480 h, 20 DAT): 55%
inhibition at 16 g/ha (ALOMY; 480 h, 20 DAT): 90%
observed % activity (POLCO; 8 g ai/ha, 20 DAT): 0%
observed % activity (POLCO; 16 g ai/ha, 20 DAT): 70%
inhibition at 8 g/ha (POLCO; Fallopia convolvulus, pre-emergence, 192 h, 8 g ai/ha, 8 DAT, read-out: observed % activity): 65%
inhibition at 16 g/ha (POLCO; Fallopia convolvulus, pre-emergence, 480 h, 16 g ai/ha, 20 DAT, read-out: observed % activity): 80%
observed % activity (AVEFA; 8 g ai/ha): 5% and 10%
observed % activity (AVEFA; 16 g ai/ha): 10%
inhibition at 8 g/ha (AVEFA; Avena fatua, pre-emergence, 192 h, 8 g ai/ha, 8 DAT, read-out: observed % activity): 0%
inhibition at 16 g/ha (AVEFA; Avena fatua, pre-emergence, 192 h, 16 g ai/ha, 8 DAT, read-out: observed % activity): 0%
inhibition at 16 g/ha (BRADC; 192 h, 8 DAT): 60%
inhibition at 8 g/ha (BRADC; 480 h, 8 g ai/ha, 20 DAT): 78%
inhibition at 16 g/ha (BRADC; 480 h, 20 DAT): 70%
observed % activity (COMBE; 8 g ai/ha): 50%
observed % activity (COMBE; 16 g ai/ha): 80%
inhibition at 8 g/ha (COMBE; Commelina benghalensis, pre-emergence, 480 h, 8 g ai/ha, read-out: observed % activity): 60%
inhibition at 16 g/ha (COMBE; Commelina benghalensis, pre-emergence, 480 h, 16 g ai/ha, read-out: observed % activity): 65%
observed % activity (EPHHL; 16 g ai/ha): 65%
inhibition at 8 g/ha (EPHHL; Euphorbia heterophylla, pre-emergence, 480 h, 8 g ai/ha, read-out: observed % activity): 45%
inhibition at 16 g/ha (EPHHL; Euphorbia heterophylla, pre-emergence, 480 h, 16 g ai/ha, read-out: observed % activity): 70%
observed % activity (GALAP; 8 g ai/ha, 20 DAT): 20%
inhibition at 16 g/ha (GALAP; Galium aparine, pre-emergence, 192 h, 16 g ai/ha, 8 DAT, read-out: observed % activity): 0%
observed % activity (GERPU; 8 g ai/ha): 20%
observed % activity (GERPU; 16 g ai/ha): 80%
inhibition at 16 g/ha (GERPU; Geranium pusillum, pre-emergence, 480 h, 16 g ai/ha, read-out: observed % activity): 60%
observed % activity (KCHSC; 8 g ai/ha): 70% and 80%
observed % activity (KCHSC; 16 g ai/ha): 80%
inhibition at 8 g/ha (KCHSC; Bassia scoparia, pre-emergence, 480 h, 8 g ai/ha, read-out: observed % activity): 90%
inhibition at 16 g/ha (KCHSC; Bassia scoparia, pre-emergence, 480 h, 16 g ai/ha, read-out: observed % activity): 85%
inhibition at 8 g/ha (LOLMU; 192 h, 8 DAT): 30%
inhibition at 16 g/ha (LOLMU; 192 h, 8 DAT): 40%
inhibition at 8 g/ha (LOLMU; 480 h, 20 DAT): 30%
inhibition at 16 g/ha (LOLMU; 480 h, 20 DAT): 40%
observed % activity (PHACA; 16 g ai/ha, 20 DAT): 60%
inhibition at 8 g/ha (PHACA; 192 h, 8 DAT): 25%
inhibition at 16 g/ha (PHACA; 192 h, 16 g ai/ha, 8 DAT): 40%
inhibition at 8 g/ha (PHACA; 480 h, 20 DAT): 28%
inhibition at 16 g/ha (PHACA; 480 h, 16 g ai/ha, 20 DAT): 50%

— US9999222B2, “Herbicidal combination comprising azines” (BASF SE, priority 2014, dated 2018)
